Consider one compound from patent US20070270403A1 (priority 2003, published 2007).

SMILES strings stand for the structures.

The assay deals with DA release in NAcc. As to the kind of experiment: In vivo microvoltammetry, DA release in NAcc (clozapine studies). The following applies: Subacute, cocaine 10 mg/kg i.p. on Day 1, hr period of study. On the set-up: species or system Sprague-Dawley Rattus Norvegicus. As to the method:
There is an increasing awareness that a psychosis, similar to that of schizophrenic psychosis, can be derived from cocaine addiction. […] Release mechanisms for monoamines, were determined by using a depolarization blocker, gamma-butyrolactone (γBL). […] Acute and Subacute studies were performed for each treatment group.
The stereotaxic equipment was purchased from David Kopf Instruments, Tujunga, Calif. A Ag/AgCl reference electrode was placed in contact with dura, 7 mm anteriorally and contralaterally to the indicator microelectrode. A stainless steel auxiliary microelectrode was placed in contact with dura. BRODERICK PROBE® microelectrodes were manufactured on site.
In vivo microvoltammetric studies on conscious Sprague-Dawley laboratory rats were begun nine to fifteen days after the aseptic surgical operations were performed. On each experimental day, the animal was placed in a Plexiglas-copper faradaic chamber. The three-microelectrode assembly, enclosed within the animal's prosthetic acrylic cap, was connected to a CV37 detector by means of a mercury commutator (Br. Res. Instr., Princeton, N.J.), a flexible cable, and a mating connector (BJM Electronics, Staten Island, N.Y.). The CV37 detector was electrically connected to a Minigard surge suppresser (Jefferson Electric, Magnetek, N.Y.) which was then connected to an electrical ground in isolation. […] Each animal was used as its own control. Changes in synaptic concentrations of DA and 5-HT are presented as percent change (% of control) in order to minimize normal between-animal variations. […] In vivo microvoltammetric scans were recorded in sec and repeated every five min for a period of 2 hrs before each treatment and a period of two hrs after each treatment.
Potentials were applied with a CV37 detector (BAS, West Lafayette, Ind.). Potentials were applied from −0.2V to +0.4V with respect to a Ag/AgCl (1M NaCl) electrode, at a scan rate of 10 mV/sec at time constants of 5 and 1 tau. One scan was completed in 60 sec. Non-faradaic charging current was eliminated in the first 25 sec.
Calibration curves were determined experimentally, in vitro, in a freshly prepared deoxygenated physiological saline-phosphate buffer solution (0.01 M, pH=7.4). We use ultra pure Nitrogen (N2) (T. W. Smith Corp., Bklyn, N.Y.) to deoxygenate the buffer solution. […] Calibration studies were also performed in freshly prepared deoxygenated buffer solutions containing phosphotidylethanolamine (PEA), combined with bovine serum albumin (BSA) (Sigma Aldrich, St. Louis, Mo.), a solution which closely mimics brain constituents. […] Detection limits for basal synaptic concentrations of DA and 5-HT in NAcc were 12 nM and 2 nM respectively.

Take `COC(=O)[C@H]1[C@@H](OC(=O)c2ccccc2)C[C@@H]2CC[C@H]1N2C` [Cocaine, cocaine]: the “Decrease in DA release on Day 2 compared to drug effect on Day 1” value is “about 80%”.
